The structures appear in SMILES notation.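 Method: 48-hour compound exposure of cells in 96-well plates, five concentrations, linear interpolation of endpoints. GI50: concentration for 50% inhibition of growth. At the TGI there is no net growth.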

Among the test systems are NCI-H226 lung; HOP-92 NSCLC; K-562 leukemia; A549 NSCLC; LOX IMVI melanoma; UACC-257 melanoma; HL-60(TB) leukemia; HOP-62 NSCLC.
Common to all, as to assay: DTP human tumour cell line panel, 48 h

Usually TGI stands for the concentration giving total growth inhibition. A high value points to less potent growth arrest. In the case of `C[C@@H]1OC(=O)N2CCCC(=C3SCCCS3)C12` (stereo partly drawn), the TGI is greater than 100 µM with NCI-H226 lung; 84.9 µM with HOP-92 NSCLC; greater than 100 µM with K-562 leukemia; greater than 100 µM in the assay with A549 NSCLC; greater than 100 µM with LOX IMVI melanoma; greater than 100 µM in the assay on UACC-257 melanoma.

The GI50 is the concentration that inhibits growth by half. Take `Cc1cc2c(cc1Cl)SC1=NN(C)S(=O)N1S2(=O)=O` (stereo not drawn): the GI50 in the assay on NCI-H226 lung was greater than 100 µM; with HOP-92 NSCLC, 25.5 µM; with HL-60(TB) leukemia, greater than 100 µM; in the assay with K-562 leukemia it was greater than 100 µM; with A549 NSCLC, greater than 100 µM; in the assay on LOX IMVI melanoma, greater than 100 µM. Also, the GI50 with HOP-62 NSCLC and in the assay with UACC-257 melanoma was greater than 100 µM each time. Besides, the TGI in the assay on NCI-H226 lung is greater than 100 µM; in the assay on HOP-92 NSCLC it was 87 µM; in the assay on HL-60(TB) leukemia, greater than 100 µM; in the assay with K-562 leukemia, greater than 100 µM; with A549 NSCLC, greater than 100 µM; in the assay on LOX IMVI melanoma, greater than 100 µM. Further, the TGI in the assay with HOP-62 NSCLC and with UACC-257 melanoma was greater than 100 µM throughout.

Take `CC1CN1C(=O)NCCCCCCNC(=O)N1CC1C` (stereo not drawn): the TGI was greater than 100 µM in the assay with NCI-H226 lung; greater than 100 µM in the assay with HOP-92 NSCLC; greater than 100 µM with HL-60(TB) leukemia; greater than 100 µM in the assay on K-562 leukemia; greater than 100 µM in the assay with A549 NSCLC; greater than 60.3 µM in the assay with LOX IMVI melanoma. Further, the TGI in the assay with HOP-62 NSCLC and in the assay with UACC-257 melanoma was greater than 100 µM throughout.

As for `CCOC(=O)/C(C#N)=C/c1[nH]c(C(=O)OCc2ccccc2)c(C)c1C`, the TGI with HOP-92 NSCLC, with HL-60(TB) leukemia, with K-562 leukemia, in the assay on A549 NSCLC, in the assay with LOX IMVI melanoma and in the assay on HOP-62 NSCLC was greater than 100 µM in each case. This molecule yielded a TGI in the assay with UACC-257 melanoma greater than 100 µM.

With `COc1cc(Nc2nc3ccccc3nc2-c2cccs2)cc(OC)c1OC`, the TGI in the assay on NCI-H226 lung is greater than 100 µM; with HOP-92 NSCLC it was 83.9 µM; in the assay on HL-60(TB) leukemia, greater than 100 µM; in the assay on A549 NSCLC, greater than 100 µM; in the assay with LOX IMVI melanoma, greater than 100 µM; in the assay with HOP-62 NSCLC it was greater than 100 µM. Also, the concentration for total growth inhibition (TGI) with UACC-257 melanoma was greater than 100 µM.

Turning to `O=C(O)C(CS)Nc1c2ccccc2nc2ccccc12` (stereo not drawn), the TGI in the assay with NCI-H226 lung, in the assay on HOP-92 NSCLC, in the assay with HL-60(TB) leukemia, with K-562 leukemia, in the assay on A549 NSCLC and in the assay on LOX IMVI melanoma was greater than 100 µM each time. The TGI in the assay with UACC-257 melanoma was greater than 100 µM.

As for `COc1cc(C(=O)CBr)c(OC)cc1C`, the TGI with NCI-H226 lung, in the assay on HL-60(TB) leukemia, with K-562 leukemia, in the assay on A549 NSCLC, with LOX IMVI melanoma and in the assay on HOP-62 NSCLC was greater than 100 µM in each case. In the assay with UACC-257 melanoma, the TGI is greater than 100 µM.

As to `NC12CC3CC(C1)CC(C(=O)O)(C3)C2`, the TGI with HOP-92 NSCLC, in the assay on HL-60(TB) leukemia, with K-562 leukemia, in the assay with A549 NSCLC, with LOX IMVI melanoma and in the assay with HOP-62 NSCLC was greater than 100 µM in each case. This molecule yielded a TGI in the assay on UACC-257 melanoma greater than 100 µM.

As to `CC(C)(CO)N1CCN(C(=S)Nc2ccccc2)CC1`, the TGI is greater than 100 µM in the assay with NCI-H226 lung; greater than 100 µM in the assay with HOP-92 NSCLC; 99.5 µM in the assay with K-562 leukemia; greater than 100 µM with A549 NSCLC; greater than 100 µM in the assay on LOX IMVI melanoma; greater than 100 µM with HOP-62 NSCLC. This molecule also yielded a TGI in the assay on UACC-257 melanoma greater than 100 µM.

`COc1ccc(NC(=O)CC(=O)N/N=C/c2ccc(N(CCC#N)S(C)(=O)=O)cc2)cc1`: the TGI with NCI-H226 lung, with K-562 leukemia, with A549 NSCLC, in the assay on LOX IMVI melanoma and in the assay with HOP-62 NSCLC was greater than 100 µM throughout.

Regarding `Cc1cc(Cl)cc2c1NC(=O)C2(O)CC(=O)c1ccco1` (stereo not drawn), the TGI in the assay on NCI-H226 lung was greater than 100 µM; in the assay with HOP-92 NSCLC it was greater than 100 µM; in the assay on K-562 leukemia, 54.6 µM; with A549 NSCLC, greater than 100 µM; with LOX IMVI melanoma, greater than 69.8 µM; in the assay on HOP-62 NSCLC it was greater than 100 µM. This molecule also came in with a TGI in the assay on UACC-257 melanoma greater than 100 µM.

For `O=C(CC1C(=O)NN(c2ccc(Br)cc2)C1=O)c1cc(O)ccc1O` (stereo not drawn), the GI50 in the assay with NCI-H226 lung is 10.4 µM; in the assay with HOP-92 NSCLC, 11.6 µM; in the assay on HL-60(TB) leukemia it was 23.5 µM; with K-562 leukemia, 14.8 µM; in the assay with A549 NSCLC, greater than 50 µM; in the assay on LOX IMVI melanoma it was 8.3 µM. Further, the GI50 in the assay on UACC-257 melanoma was 19.6 µM. Further, the total growth inhibition concentration (TGI) was 36.9 µM in the assay with NCI-H226 lung; greater than 50 µM in the assay on HOP-92 NSCLC; greater than 50 µM in the assay with HL-60(TB) leukemia; greater than 50 µM with K-562 leukemia; greater than 50 µM in the assay on A549 NSCLC; 19.5 µM in the assay on LOX IMVI melanoma. This molecule came in with a TGI in the assay on UACC-257 melanoma greater than 50 µM.

In the case of `O=C(NC12CC3CC(CC(F)(C3)C1)C2)c1ccccc1`, the TGI in the assay on HOP-92 NSCLC, with HL-60(TB) leukemia, in the assay with K-562 leukemia, in the assay on A549 NSCLC, in the assay with LOX IMVI melanoma and in the assay on HOP-62 NSCLC was greater than 100 µM throughout. In addition, the TGI in the assay on UACC-257 melanoma is greater than 100 µM.

For the molecule `CN(C)CCNC(=O)c1cccc2ccc(-c3ccncc3)nc12`, the TGI was 7.31 µM in the assay on HOP-92 NSCLC; 7.59 µM in the assay with HL-60(TB) leukemia; 9.56 µM in the assay on K-562 leukemia; 5.56 µM with HOP-62 NSCLC; 6.66 µM in the assay on UACC-257 melanoma.

`COc1ccc2c(c1)C(=O)Cc1ccccc1CC2`: the TGI in the assay with NCI-H226 lung, in the assay on HOP-92 NSCLC, with HL-60(TB) leukemia, in the assay on K-562 leukemia, in the assay on A549 NSCLC and in the assay on LOX IMVI melanoma was greater than 100 µM in each case. For the same molecule, in the assay with UACC-257 melanoma, the TGI is greater than 100 µM.

With `CCN(CC)C(c1ccc(N(C)C)cc1)C(c1ccc(N(C)C)cc1)N(CC)CC` (stereo not drawn), the TGI with NCI-H226 lung was greater than 73 µM; in the assay on HOP-92 NSCLC, 45.7 µM; in the assay on HL-60(TB) leukemia it was 38.3 µM; in the assay with K-562 leukemia, greater than 73 µM; in the assay with A549 NSCLC it was greater than 73 µM; in the assay on HOP-62 NSCLC, greater than 73 µM. Further, the TGI with UACC-257 melanoma was greater than 73 µM.

In the case of `CC[C@@]1(c2ccccc2)C2=C(CC(C)(C)CC2=O)Nc2[nH]ncc21`, the GI50 with NCI-H226 lung, with HOP-92 NSCLC, in the assay on K-562 leukemia, with A549 NSCLC, with LOX IMVI melanoma and in the assay on HOP-62 NSCLC was greater than 100 µM in each case. For the same molecule, the GI50 with UACC-257 melanoma is greater than 100 µM. Besides, the TGI in the assay on NCI-H226 lung, in the assay on HOP-92 NSCLC, in the assay with K-562 leukemia, in the assay with A549 NSCLC, in the assay on LOX IMVI melanoma and in the assay with HOP-62 NSCLC was greater than 100 µM in each case. Besides, in the assay on UACC-257 melanoma, the TGI is greater than 100 µM.
